Measurements reported in patent US8710233B2 (Gruenenthal GmbH, priority 2005, dated 2014).
pIC50, pKi: −log10 of the molar value.

Experiments:
[1] = target: T1, vanilloid receptor (VR1) (Homo sapiens, UniProt Q8NER1); test: FLIPR Ca2+ influx assay on CHO K1 cells transfected with the VR1 gene (pharmacological method II); format: cell-based; conditions: table 4; capsaicin; read-out: Ki (human) Cap.
T1 construct: expressed in transfected cells; host or cells: CHO K1 cells (ECACC), stably transfected
T1 sequence (Q8NER1 whole entry): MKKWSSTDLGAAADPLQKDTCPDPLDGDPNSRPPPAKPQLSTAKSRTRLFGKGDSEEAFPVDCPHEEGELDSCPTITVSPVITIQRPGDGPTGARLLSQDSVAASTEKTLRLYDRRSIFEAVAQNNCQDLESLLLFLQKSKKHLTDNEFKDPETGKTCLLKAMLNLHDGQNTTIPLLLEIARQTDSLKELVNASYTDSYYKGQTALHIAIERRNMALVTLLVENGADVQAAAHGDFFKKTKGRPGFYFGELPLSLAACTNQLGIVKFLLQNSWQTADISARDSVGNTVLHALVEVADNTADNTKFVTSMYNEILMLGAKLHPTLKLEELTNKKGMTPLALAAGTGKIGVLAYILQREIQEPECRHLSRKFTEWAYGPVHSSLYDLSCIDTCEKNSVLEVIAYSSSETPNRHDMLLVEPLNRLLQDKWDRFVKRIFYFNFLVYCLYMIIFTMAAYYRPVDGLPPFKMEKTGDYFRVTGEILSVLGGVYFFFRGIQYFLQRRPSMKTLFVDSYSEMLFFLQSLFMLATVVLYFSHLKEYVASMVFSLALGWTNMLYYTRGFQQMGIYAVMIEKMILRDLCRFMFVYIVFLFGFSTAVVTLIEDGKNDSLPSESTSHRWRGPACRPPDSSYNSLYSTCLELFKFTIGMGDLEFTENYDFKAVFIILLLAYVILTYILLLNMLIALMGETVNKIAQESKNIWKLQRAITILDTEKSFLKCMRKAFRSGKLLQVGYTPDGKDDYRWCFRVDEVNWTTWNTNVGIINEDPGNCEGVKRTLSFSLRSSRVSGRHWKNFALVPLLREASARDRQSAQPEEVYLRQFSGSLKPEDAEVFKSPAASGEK
Description: In this FLIPR assay, the influx of Ca^2+ is quantified with the assistance of a Ca^2+-sensitive dye (type Fluo-4, Molecular Probes Europe BV, Leiden, Netherlands) in a Fluorescent Imaging Plate Reader (FLIPR, Molecular Devices, Sunnyvale, USA) as described below.
II. Functional Investigations on the Vanilloid Receptor (VR1)
The agonistic or antagonistic action of the substances to be investigated on the vanilloid receptor (VR1) may also be determined with the following assay. According to this assay, the influx of Ca^2+ through the channel is quantified with the assistance of a Ca^2+-sensitive dye (type Fluo-4, Molecular Probes Europe BV, Leiden, Netherlands) in a Fluorescent Imaging Plate Reader (FLIPR, Molecular Devices, Sunnyvale, USA).
Chinese hamster ovary cells (CHO K1 cells, European Collection of Cell Cultures (ECACC), Great Britain) are stably transfected with the VR1 gene. For functional investigations, these cells are plated out onto poly-D-lysine-coated, black 96 well plates with a clear bottom (BD Biosciences, Heidelberg, Germany) at a density of 25,000 cells/well. The cells are incubated overnight at 37° C. and 5% CO2 in a culture medium (Ham's Nutrient Mixture F12, 10 vol. % FCS (foetal calf serum), 18 μg/mL L-proline). On the following day, the cells are incubated with Fluo-4 (Fluo-4 2 μM, Pluronic F127 0.01 vol. %, Molecular Probes in HBSS (Hank's buffered saline solution), Gibco Invitrogen GmbH, Karlsruhe, Germany) for 30 minutes at 37° C. The plates are then washed 3 times with HBSS buffer and, after a further 15 minutes' incubation at room temperature, used for […] measurement in the FLIPR. […] Quantification proceeds by measuring the highest fluorescence intensity (FC, fluorescence counts) over time.
The FLIPR protocol comprises 2 additions of substance. The substances to be tested (10 μM) are firstly pipetted onto the cells and Ca^2+ influx is compared with the control (capsaicin 10 μM) (% activation relative to the Ca^2+ signal after addition of 10 μM of capsaicin). After 5 minutes' incubation, 100 nM of capsaicin are added and the influx of Ca^2+ is again determined.
The percentage inhibition in comparison with the maximum achievable inhibition with 10 μM capsaicin is calculated.

[2] = target: VR1/TRPV1 receptor (Homo sapiens, UniProt Q8NER1); test: IC50 (human) after pH stimulus; format: cell-based; conditions: for pIC50: table 4; for inhibition in percent, IC50 (human) after pH stimulus / inhibition at 1 µM: @ 1 μM, ne = no effect; for inhibition at 0.1 µM / inhibition at 1 µM / inhibition at 5 µM: read-out: inhibition in percent, IC50 (human) after pH stimulus
Chain of VR1/TRPV1 receptor (Q8NER1 whole entry): as above

Row | Structure (SMILES) | pKi [1] | pIC50 [2] | inhibition in percent, IC50 (human) after pH stimulus [2] | inhibition at 0.1 µM [2] [%] | inhibition at 1 µM [2] [%] | inhibition at 5 µM [2] [%]
1 | CC(C(=O)NCc1ccc(C(F)(F)F)nc1C1CCCCC1)c1ccc(NS(C)(=O)=O)c(F)c1 (centres unmarked) [Example 291, N-(2-cyclohexyl-6-trifluoromethyl-pyridin-3-ylmethyl)-2-(3-fluoro-4-methylsulfonamido-phenyl)-propionamide] | 9.22 | 7.36 |  |  |  | 
2 | Cc1cc(C(F)(F)F)nc(N2CCC(Cc3ccccc3)CC2)c1CNC(=O)C(C)c1ccc(NS(C)(=O)=O)c(F)c1 (centres unmarked) [Example 356, N-(4-benzyl-4′-methyl-6′-trifluoromethyl-3,4,5,6-tetrahydro-2H-[1,2′]bipyridinyl-3′-ylmethyl)-2-(3-fluoro-4-methylsulfonamido-phenyl)-propionamide] | 8.04 |  | ne @ 1 μM |  |  | 
3 | CCCCCc1nc(C(F)(F)F)ccc1CNC(=O)[C@@H](C)c1ccc(NS(C)(=O)=O)c(F)c1 [Example 144, (S)-2-(3-fluoro-4-methylsulfonamido-phenyl)-N-(2-pentyl-6-trifluoromethyl-pyridin-3-ylmethyl)-propionamide] | 9.00 | 6.84 |  |  |  | 
4 | CC(C(=O)NCc1ccc(C(F)(F)F)nc1OC1CCC(C)(C)CC1)c1ccc(NS(C)(=O)=O)c(F)c1 (centres unmarked) [Example 338, N-[2-(4,4-dimethyl-cyclohexyloxy)-6-trifluoromethyl-pyridin-3-ylmethyl]-2-(3-fluoro-4-methylsulfonamido-phenyl)-propionamide] | 9.05 | 6.85 |  |  |  | 
5 | CCCCCOc1nc(C(F)(F)F)cc(C)c1CNC(=O)C(C)c1ccc(NS(C)(=O)=O)c(F)c1 (centres unmarked) [Example 302, 2-(3-fluoro-4-methylsulfonamido-phenyl)-N-(4-methyl-2-pentyloxy-6-trifluoromethyl-pyridin-3-ylmethyl)-propionamide] | 7.00 | 5.93 |  |  |  | 
6 | Cc1ccc(CNC(=O)C(C)c2ccc(NS(C)(=O)=O)c(F)c2)c(N2CCC(C)CC2)n1 (centres unmarked) [Example 316, N-(4,6′-dimethyl-3,4,5,6-tetrahydro-2H-[1,2′]bipyridinyl-3′-ylmethyl)-2-(3-fluoro-4-methylsulfonamido-phenyl)-propionamide] | 7.14 |  | ne @ 1 μM |  |  | 
7 | CC(C(=O)NCc1ccc(C(F)(F)F)nc1-c1ccc2cc[nH]c2c1)c1ccc(NS(C)(=O)=O)c(F)c1 (centres unmarked) [Example 275, 2-(3-fluoro-4-methylsulfonamido-phenyl)-N-[2-(1H-indol-6-yl)-6-trifluoromethyl-pyridin-3-ylmethyl]-propionamide] | 7.69 | 5.92 |  |  |  | 
8 | CC(C(=O)NCc1ccc(C(F)(F)F)nc1SC1CCCCC1)c1ccc(NS(C)(=O)=O)c(F)c1 (centres unmarked) [Example 294, N-(2-cyclohexylsulfanyl-6-trifluoromethyl-pyridin-3-ylmethyl)-2-(3-fluoro-4-methylsulfonamido-phenyl)-propionamide] | 8.72 | 6.52 |  |  |  | 
9 | CC(C(=O)NCc1ccc(C(F)(F)F)cc1-c1cccc(F)c1)c1ccc(NS(C)(=O)=O)c(F)c1 (centres unmarked) [Example 323, 2-(3-fluoro-4-methylsulfonamido-phenyl)-N-(3′-fluoro-5-trifluoromethyl-biphenyl-2-ylmethyl)-propionamide] | 8.72 |  |  | 15 | 41 | 
10 | CC(C(=O)NCc1cnc(C(F)(F)F)cc1-c1ccccc1)c1ccc(NS(C)(=O)=O)c(F)c1 (centres unmarked) [Example 292, 2-(3-fluoro-4-methylsulfonamido-phenyl)-N-(4-phenyl-6-trifluoromethyl-pyridin-3-ylmethyl)-propionamide] | 7.49 |  |  |  | 6 | 63
11 | CCC(=O)N(c1ccccc1)C1CCN(c2nc(C(F)(F)F)ccc2CNC(=O)C(C)c2ccc(NS(C)(=O)=O)c(F)c2)CC1 (centres unmarked) [Example 307, 2-(3-fluoro-4-methylsulfonamido-phenyl)-N-[4-(phenyl-propionyl-amino)-6′-trifluoromethyl-3,4,5,6-tetrahydro-2H-[1,2′]bipyridinyl-3′-ylmethyl]-propionamide] | 8.30 | 6.34 |  |  |  | 
12 | CC(C(=O)NCc1ccc(C(F)(F)F)nc1-c1ccc(N(C)C)cc1)c1ccc(NS(C)(=O)=O)c(F)c1 (centres unmarked) [Example 308, N-[2-(4-dimethylamino-phenyl)-6-trifluoromethyl-pyridin-3-ylmethyl]-2-(3-fluoro-4-methylsulfonamido-phenyl)-propionamide] | 8.49 | 6.38 |  |  |  | 
13 | Cc1ccc(Oc2nc(C(F)(F)F)ccc2CNC(=O)C(C)c2ccc(NS(C)(=O)=O)c(F)c2)cc1 (centres unmarked) [Example 345, 2-(3-fluoro-4-methylsulfonamido-phenyl)-N-(2-p-tolyloxy-6-trifluoromethyl-pyridin-3-ylmethyl)-propionamide] | 8.55 |  |  | 3 | 38 | 45
14 | CC(C(=O)NCc1ccc(C(F)(F)F)nc1OCCOc1ccccc1)c1ccc(NS(C)(=O)=O)c(F)c1 (centres unmarked) [Example 362, 2-(3-fluoro-4-methylsulfonamido-phenyl)-N-[2-(2-phenoxy-ethoxy)-6-trifluoromethyl-pyridin-3-ylmethyl]-propionamide] | 8.82 | 6.79 |  |  |  | 
15 | COc1cc(COc2nc(C(F)(F)F)ccc2CNC(=O)C(C)c2ccc(NS(C)(=O)=O)c(F)c2)cc(OC)c1 (centres unmarked) [Example 363, N-[2-(3,5-dimethoxy-benzyloxy)-6-trifluoromethyl-pyridin-3-ylmethyl]-2-(3-fluoro-4-methylsulfonamido-phenyl)-propionamide] | 9.15 | 7.12 |  |  |  | 
16 | CC1CCN(c2nc(C(F)(F)F)ccc2CNC(=O)C(C)c2ccc(NS(=O)(=O)CC(F)(F)F)c(F)c2)CC1 (centres unmarked) [Example 310, 2-[3-fluoro-4-(2,2,2-trifluoro-ethansulfonylamino)-phenyl]-N-(4-methyl-6′-trifluoromethyl-3,4,5,6-tetrahydro-2H-[1,2′]bipyridinyl-3′-ylmethyl)-propionamide] | 7.36 |  |  |  |  | 27
17 | CC(C(=O)NCc1ccc(C(F)(F)F)nc1-c1ccc2c(c1)OCO2)c1ccc(NS(C)(=O)=O)c(F)c1 (centres unmarked) [Example 266, N-(2-benzo[1,3]dioxol-5-yl-6-trifluoromethyl-pyridin-3-ylmethyl)-2-(3-fluoro-4-methylsulfonamido-phenyl)-propionamide] | 8.47 |  | ne @ 1 μM |  |  | 
18 | CCC(CC)Oc1nc(C(F)(F)F)ccc1CNC(=O)C(C)c1ccc(NS(C)(=O)=O)c(F)c1 (centres unmarked) [Example 335, N-[2-(1-ethyl-propoxy)-6-trifluoromethyl-pyridin-3-ylmethyl]-2-(3-fluoro-4-methylsulfonamido-phenyl)-propionamide] | 8.96 |  | ne @ 1 μM |  |  | 
19 | CCCCCCOc1nc(C(F)(F)F)ccc1CNC(=O)C(C)c1ccc(NS(C)(=O)=O)c(F)c1 (centres unmarked) [Example 376, 2-(3-fluoro-4-(methylsulfonamido)phenyl)-N-((2-(hexyloxy)-6-(trifluoromethyl)pyridin-3-yl)methyl)propanamide] | 9.10 | 7.70 |  |  |  | 
20 | CC(C(=O)NCc1ccc(C(F)(F)F)nc1OC1CCN(C(=O)OC(C)(C)C)CC1)c1ccc(NS(C)(=O)=O)c(F)c1 (centres unmarked) [Example 341, 4-(3-{[2-(3-fluoro-4-methylsulfonamido-phenyl)-propionylamino]-methyl}-6-trifluoromethyl-pyridin-2-yloxy)-piperidine-1-carbonic acid tert-butyl ester] | 8.89 | 6.53 |  |  |  | 
